Data reported in patent publication US7261906B2, “Anti-cancer therapy agent of arsenic hexoxide (As4O6) of a natural chemical substance and its pharmaceutical composition” (priority 1998, dated 2007).

Experiments:
[1] = test system: cloned tumor cells of mice and human beings; test: Direct cytotoxicity of HD-2 relative to cisplatin over the clones; type: cell-based; settings: 48 hours of incubation, mean over clones of Table 5
Method: (§1) Cloned tumor cells of P388 leukemia, L1210 leukemia, L5178Y lymphoma, Colon26-M3.1 carcinoma, and B16-BL6 melanoma, from mice, and K562 leukemia, liver carcinoma HEP-G2, Hs578T breast cancer, AN-3-CA adenocarcinoma, DLD colon carcinoma, and HeLa epitheloid carcinoma, from human beings, were cultured in EMM, DMEM, or RMPI-1640 culture media containing 7.5% fetal bovine serum (FBS), as described in ATCC manual. […] Tumor cells in test wells were incubated in 5% CO2 incubator at 37° C. for 2 days.

[2] = test system: colon26-M3.1 carcinoma cells; test: Inhibitory effect of intravenously-administered HD-2 on cancer metastasis (lung); type: in vivo, mice
Method: B16-BL6 melanoma cells or colon26-M3.1 carcinoma cells were inoculated into mice and number of metastatic tumor masses appearing in lungs was counted. […] The peak activity was observed a: 1-mg dose with very high anticancer efficacy (86%). […] This indicated oral administration of HD-2 was quite effective for treatment of established cancer.
In this experiment, HD-2 was administered intravenously with dosage less than 500 mg/kg body weight per day.

[3] = test system: 3T3-fibroblast cells; test: Cytotoxicity in 3T3-fibroblast cells, time course (XTT method); type: cell-based, murine
Method: as §1
For further study of the cytotoxicity of each substance on cloned tumor cells, 3T3-fibroblast cells were cultured in test wells as described in experiment 1.

[4] = 1 μg intravenous administration +1
[5] = 10 μg intravenous administration +1
[6] = 10 μg intravenous administration +7
[7] = 100 μg intravenous administration +1

O1[As]2O[As]3O[As]1O[As](O2)O3 [HD-2, arsenic hexoxide (As4O6)]
direct cytotoxicity, times as high as cisplatin [1]: 50 times | inhibitory rate [2, 4]: 66.5% | number of metastatic mass, mean ± SD [2, 4]: 52 ± 28 | inhibitory rate [2, 5]: 92.9% | number of metastatic mass, mean ± SD [2, 5]: 11 ± 19 | inhibitory rate [2, 6]: 67.5% | number of metastatic mass, mean ± SD [2, 6]: 50 ± 11 | inhibitory rate [2, 7]: 90.3% | number of metastatic mass, mean ± SD [2, 7]: 15 ± 15 | anti-metastatic efficacy ([2]; 10- to 100-μg intravenous): above 90% | morphological observation of cells ([3]; 3T3, 34 hours of treatment): complete necrosis of tumor cells | cytotoxicity, times as high as that of cisplatin ([3]; 3T3, 48 hours after administration): about 270 times | cytotoxic effect over time (FIG. 3) ([3]; 3T3, time course after the addition, XTT): demonstrated cytotoxic effect starting from 4 hours
